What was measured:
Assay in all cases: relative viability (nuclei count vs DMSO), 5 days (fraction); higher = more cells survive
IU1-47 + Trametinib = compound: CC1=CC(=C(N1C2=CC=C(C=C2)Cl)C)C(=O)CN3CCCCC3 [IU1-47] + CC(=O)Nc1cccc(-n2c(=O)n(C3CC3)c(=O)c3c(Nc4ccc(I)cc4F)n(C)c(=O)c(C)c32)c1 [Trametinib] (partner 0.02 µM)
Outline: (§1)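 Dosing by pin tool came one day after lung cancer cell lines were seeded in 1536-well plates, using either one drug or a fixed anchor-drug dose plus five library-drug doses (not always all listed) in √10 steps. After 5 days, nuclei were counted on 4× images. Relative viability is treated-well nuclei count divided by vehicle-well nuclei count, and values are medians of duplicate plates.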

IU1-47 + Alpelisib = compound: CC1=CC(=C(N1C2=CC=C(C=C2)Cl)C)C(=O)CN3CCCCC3 [IU1-47] + Cc1nc(NC(=O)N2CCC[C@H]2C(N)=O)sc1-c1ccnc(C(C)(C)C(F)(F)F)c1 [Alpelisib] (partner 2 µM)
Outline: as §1

IU1-47 + Phenformin = compound: CC1=CC(=C(N1C2=CC=C(C=C2)Cl)C)C(=O)CN3CCCCC3 [IU1-47] + N=C(N)NC(=N)NCCc1ccccc1 [Phenformin] (partner 250 µM)
Outline: as §1

FG-4592 + Vorinostat = compound: Cc1nc(C(=O)NCC(=O)O)c(O)c2ccc(Oc3ccccc3)cc12 [FG-4592] + O=C(CCCCCCC(=O)Nc1ccccc1)NO [Vorinostat] (partner 1 µM)
Outline: as §1

Cell Line | relative viability (IU1-47 + Trametinib; first compound 0.08 µM) | relative viability (IU1-47 + Trametinib; first compound 0.253 µM) | relative viability (IU1-47 + Trametinib; first compound 0.8 µM) | relative viability (IU1-47 + Trametinib; first compound 2.53 µM) | relative viability (IU1-47 + Trametinib; first compound 8 µM) | relative viability (IU1-47 + Alpelisib; first compound 0.08 µM) | relative viability (IU1-47 + Alpelisib; first compound 0.253 µM) | relative viability (IU1-47 + Alpelisib; first compound 0.8 µM) | relative viability (IU1-47 + Alpelisib; first compound 8 µM) | relative viability (IU1-47 + Phenformin; first compound 0.08 µM) | relative viability (IU1-47 + Phenformin; first compound 0.253 µM) | relative viability (IU1-47 + Phenformin; first compound 0.8 µM) | relative viability (IU1-47 + Phenformin; first compound 8 µM) | relative viability (FG-4592 + Vorinostat; first compound 0.08 µM) | relative viability (FG-4592 + Vorinostat; first compound 0.253 µM) | relative viability (FG-4592 + Vorinostat; first compound 0.8 µM) | relative viability (FG-4592 + Vorinostat; first compound 2.53 µM) | relative viability (FG-4592 + Vorinostat; first compound 8 µM) | relative viability (IU1-47 + Alpelisib; first compound 2.53 µM) | relative viability (IU1-47 + Phenformin; first compound 2.53 µM)
201T | 0.719 | 0.747 | 0.715 | 0.7 | 0.73 | 1.08 | 1.04 | 0.938 | 1.04 | 0.419 | 0.435 | 0.486 | 0.362 | 0.905 | 0.933 | 0.807 | 0.972 | 0.993 | – | –
A549 | – | – | – | – | – | 0.795 | 0.767 | 0.751 | 0.642 | 0.165 | 0.105 | 0.144 | 0.0832 | – | – | – | – | – | 0.936 | –
A-427 | 0.833 | 0.879 | 0.773 | 0.749 | 0.636 | 1.09 | 1.08 | 1.14 | 1.04 | 0.342 | 0.313 | 0.306 | 0.229 | 0.84 | 0.85 | 0.845 | 0.806 | 0.78 | – | –
ABC-1 | – | – | – | – | – | 1.12 | 1.3 | 0.977 | 1.1 | 0.212 | 0.234 | 0.202 | 0.247 | 1.14 | 1.01 | – | 1.14 | 1.03 | – | –
BEN | 1.21 | 1.1 | 1.23 | 0.896 | 1.15 | 1.06 | 1.13 | 1.24 | 0.834 | 0.263 | 0.24 | 0.27 | 0.275 | 0.558 | 0.566 | 0.459 | 0.546 | 0.547 | 0.973 | –
CAL-12T | 0.353 | 0.368 | 0.309 | 0.289 | 0.32 | 1.31 | 1.39 | 1.47 | 0.823 | 0.525 | 0.576 | 0.613 | 0.554 | 0.624 | 0.583 | 0.651 | 0.585 | 0.496 | 1.18 | 0.472
COR-L23 | 0.579 | 0.578 | 0.595 | 0.534 | 0.788 | 0.686 | 0.947 | 0.869 | 0.975 | 0.414 | 0.45 | 0.472 | 0.492 | 0.414 | 0.373 | 0.427 | 0.337 | 0.457 | 0.951 | 0.438
COR-L 105 | 0.522 | 0.422 | 0.45 | 0.461 | 0.459 | 1.29 | 1.06 | 1.11 | 0.783 | 0.418 | 0.438 | 0.506 | 0.454 | 0.723 | 0.755 | 0.843 | 0.699 | 0.769 | 1.16 | 0.501
Calu-6 | – | – | – | – | – | 0.907 | 1.01 | 0.989 | 1.25 | – | – | – | – | – | – | – | – | – | 0.985 | –
ChaGo-K-1 | 0.927 | 0.869 | 0.958 | 0.813 | 0.814 | – | – | – | – | 0.464 | 0.545 | 0.428 | 0.451 | 0.694 | 0.819 | 0.687 | 0.758 | 0.693 | – | 0.579
EBC-1 | – | – | – | – | – | 0.863 | 0.742 | 0.805 | 0.676 | – | – | – | – | – | – | – | – | – | 0.722 | –
EKVX | 0.369 | 0.374 | 0.375 | – | 0.296 | 1.21 | 1.08 | 1.04 | 0.741 | 0.24 | 0.262 | 0.263 | 0.252 | 0.869 | 0.619 | 0.64 | 0.706 | 0.784 | 1.12 | 0.259
EMC-BAC-2 | 0.978 | 0.948 | 0.942 | 1 | 0.946 | 0.768 | 0.824 | 0.793 | 0.711 | 0.548 | 0.569 | 0.53 | 0.409 | 0.43 | 0.467 | – | 0.561 | 0.366 | 0.749 | 0.627
EPLC-272H | 0.259 | 0.28 | 0.264 | – | 0.258 | 0.888 | 0.834 | 0.859 | 0.953 | 0.294 | 0.298 | 0.23 | 0.243 | 0.41 | 0.487 | 0.41 | 0.559 | 0.472 | – | –
H3255 | 0.636 | 0.643 | 0.7 | – | 0.587 | 0.696 | 0.708 | 0.754 | 0.671 | 0.426 | 0.358 | 0.294 | 0.352 | 0.89 | 0.684 | 0.721 | 0.693 | 0.84 | 0.818 | 0.365
HARA | 0.802 | – | 0.929 | 0.628 | 0.774 | 1.02 | 1.13 | 0.925 | 0.604 | 0.594 | 0.478 | 0.567 | 0.537 | 0.554 | 0.556 | 0.507 | 0.662 | 0.607 | 1.1 | –
HCC-15 | 0.415 | 0.384 | 0.384 | – | 0.469 | 0.99 | 0.926 | 0.978 | 0.82 | 0.482 | 0.497 | 0.557 | 0.432 | 0.975 | 0.796 | 0.776 | 0.82 | 0.829 | 0.825 | 0.491
HCC-44 | 1.08 | 1.1 | 1.04 | 1.08 | 0.992 | 0.942 | 0.822 | 0.783 | 0.78 | 0.167 | 0.183 | 0.143 | 0.183 | 1.03 | 1.05 | 1.2 | 1.16 | 1.11 | 0.825 | 0.221
HCC-78 | 0.929 | 0.812 | 0.814 | 0.515 | 0.939 | 0.387 | 0.319 | 0.391 | 0.294 | 0.679 | 0.691 | 0.671 | 0.617 | 0.488 | – | 0.434 | 0.376 | 0.523 | 0.327 | 0.671
